In US10988477B2 (Merck Patent GmbH, priority 2018, dated 2021):
pIC50, pKi: −log10 of the molar value.

What follows are compounds tested against GCN2 kinase (Homo sapiens, UniProt Q9P2K8) (assay: GCN2 enzyme inhibition assay (Transcreener ADP2 fluorescence polarization)). Settings: Enzyme activity for compounds of Formula IV; Ki(app), 280 μM ATP, 25° C.
Type: biochemical
How it was run: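 Human GCN2 (4 nM) preincubated 10 min with compound (0–8 μM) and 200 μM (RS)7 peptide in Tris-HCl pH 7.5, NaCl, MgCl2, DTT. Reaction started with 280 μM ATP, run 1 h at 25 °C. ADP detected by Transcreener fluorescence polarization. IC50 and Ki(app) fitted by tight-binding algorithm.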

Sequence of GCN2 kinase (Q9P2K8 whole entry): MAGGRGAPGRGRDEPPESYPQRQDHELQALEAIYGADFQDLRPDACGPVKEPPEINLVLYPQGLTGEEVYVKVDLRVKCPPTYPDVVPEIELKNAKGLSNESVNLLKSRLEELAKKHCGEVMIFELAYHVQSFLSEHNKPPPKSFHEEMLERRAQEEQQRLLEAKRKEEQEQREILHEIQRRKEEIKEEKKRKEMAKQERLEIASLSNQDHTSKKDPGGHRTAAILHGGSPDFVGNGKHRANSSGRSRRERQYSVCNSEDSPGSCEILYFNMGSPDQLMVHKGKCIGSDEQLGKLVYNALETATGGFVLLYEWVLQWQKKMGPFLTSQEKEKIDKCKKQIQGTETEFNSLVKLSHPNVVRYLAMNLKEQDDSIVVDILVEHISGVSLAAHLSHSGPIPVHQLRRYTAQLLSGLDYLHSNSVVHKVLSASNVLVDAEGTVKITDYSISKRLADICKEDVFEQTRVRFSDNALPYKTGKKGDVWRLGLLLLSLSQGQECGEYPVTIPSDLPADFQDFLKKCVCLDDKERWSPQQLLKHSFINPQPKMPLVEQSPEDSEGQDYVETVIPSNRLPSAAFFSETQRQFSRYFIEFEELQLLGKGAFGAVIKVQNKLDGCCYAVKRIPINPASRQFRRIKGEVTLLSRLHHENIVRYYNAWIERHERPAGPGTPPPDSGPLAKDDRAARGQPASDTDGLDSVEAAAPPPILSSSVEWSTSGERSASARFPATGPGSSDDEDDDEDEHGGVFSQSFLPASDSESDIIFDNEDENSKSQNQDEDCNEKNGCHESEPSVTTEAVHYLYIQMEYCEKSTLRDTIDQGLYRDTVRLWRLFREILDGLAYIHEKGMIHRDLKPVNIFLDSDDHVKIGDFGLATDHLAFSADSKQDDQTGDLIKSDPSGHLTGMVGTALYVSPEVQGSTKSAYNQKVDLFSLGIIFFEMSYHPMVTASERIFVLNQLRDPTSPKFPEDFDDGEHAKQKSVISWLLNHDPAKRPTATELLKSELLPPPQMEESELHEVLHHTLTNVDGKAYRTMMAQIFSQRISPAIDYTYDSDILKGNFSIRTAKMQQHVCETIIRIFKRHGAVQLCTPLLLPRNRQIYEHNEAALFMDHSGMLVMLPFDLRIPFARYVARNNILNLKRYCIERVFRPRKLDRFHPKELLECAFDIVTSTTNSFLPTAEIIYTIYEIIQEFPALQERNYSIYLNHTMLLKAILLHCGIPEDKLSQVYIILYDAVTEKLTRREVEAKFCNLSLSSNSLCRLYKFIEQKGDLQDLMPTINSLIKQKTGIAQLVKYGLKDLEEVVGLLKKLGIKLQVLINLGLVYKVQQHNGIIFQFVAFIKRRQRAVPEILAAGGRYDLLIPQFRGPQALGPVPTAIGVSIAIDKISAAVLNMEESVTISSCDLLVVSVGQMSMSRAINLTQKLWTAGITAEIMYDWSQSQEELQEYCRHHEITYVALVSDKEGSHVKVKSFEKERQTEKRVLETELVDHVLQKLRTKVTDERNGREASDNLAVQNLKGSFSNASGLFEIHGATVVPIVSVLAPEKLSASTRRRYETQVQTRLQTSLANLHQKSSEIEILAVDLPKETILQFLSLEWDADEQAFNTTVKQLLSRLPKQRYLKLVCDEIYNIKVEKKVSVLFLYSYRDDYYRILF

pKi	SMILES
7.00 to 8.00	CC1CN(c2nc(-c3cnc4cnc(C(F)(F)F)cn34)ncc2F)CC(c2cn[nH]c2)O1 (single isomer, unassigned) [IV-335, 4-(5-Fluoro-2-(6-(trifluoromethyl)imidazo[1,2-a]pyrazin-3-yl)pyrimidin-4-yl)-2-methyl-6-(1H-pyrazol-4-yl)morpholine]
6.00 to 7.00	CC1NC(c2cn[nH]c2)C(C)N(c2ccnc(-c3cnc4cnc(C(F)(F)F)cn34)n2)C1C (single isomer, unassigned) [IV-336, 6-(Trifluoromethyl)-3-(4-(2,3,6-trimethyl-5-(1H-pyrazol-4-yl)piperazin-1-yl)pyrimidin-2-yl)imidazo[1,2-a]pyrazine]
> 8.00	CC1NC(c2cn[nH]c2)C(C)N(c2ccnc(-c3cnc4cnc(C(F)(F)F)cn34)n2)C1C (single isomer, unassigned) [IV-337, 6-(Trifluoromethyl)-3-(4-(2,3,6-trimethyl-5-(1H-pyrazol-4-yl)piperazin-1-yl)pyrimidin-2-yl)imidazo[1,2-a]pyrazine]
6.00 to 7.00	CS(=N)(=O)CC1CCCN(c2ccnc(-c3cnc4cnc(C(F)F)cn34)n2)C1 (single isomer, unassigned) [IV-338, ((1-(2-(6-(Difluoromethyl)imidazo[1,2-a]pyrazin-3-yl)pyrimidin-4-yl)piperidin-3-yl)methyl)(imino)(methyl)-λ^6-sulfanone]
6.00 to 7.00	CS(=N)(=O)CC1CCCN(c2ccnc(-c3cnc4cnc(C(F)F)cn34)n2)C1 (single isomer, unassigned) [IV-339, ((1-(2-(6-(Difluoromethyl)imidazo[1,2-a]pyrazin-3-yl)pyrimidin-4-yl)piperidin-3-yl)methyl)(imino)(methyl)-λ^6-sulfanone]
6.00 to 7.00	CC1CC(CS(C)(=N)=O)C(C)N(c2ccnc(-c3cnc4cnc(C(F)F)cn34)n2)C1 (single isomer, unassigned) [IV-367, ((1-(2-(6-(Difluoromethyl)imidazo[1,2-a]pyrazin-3-yl)pyrimidin-4-yl)-2,5-dimethylpiperidin-3-yl)methyl)(imino)(methyl)-λ^6-sulfanone]
6.00 to 7.00	CC1CN(c2nccc(-c3cnc4cnc(C(F)(F)F)cn34)n2)C(C)C(c2cn[nH]c2)N1 (single isomer, unassigned) [IV-370, 3-(2-(2,5-Dimethyl-3-(1H-pyrazol-4-yl)piperazin-1-yl)pyrimidin-4-yl)-6-(trifluoromethyl)imidazo[1,2-a]pyrazine]
7.00 to 8.00	CC1CN(c2ccnc(-c3cnc4cnc(C(F)(F)F)cn34)n2)CC(c2cn[nH]c2C(F)(F)F)N1 (single isomer, unassigned) [IV-475, 3-(4-(3-Methyl-5-(5-(trifluoromethyl)-1H-pyrazol-4-yl)piperazin-1-yl)pyrimidin-2-yl)-6-(trifluoromethyl)imidazo[1,2-a]pyrazine]
> 8.00	Cc1n[nH]c(C)c1C1CCCN(c2ccnc(-c3cnc4cnc(C(F)(F)F)cn34)n2)C1 (single isomer, unassigned) [IV-476, 3-(4-(3-(3,5-Dimethyl-1H-pyrazol-4-yl)piperidin-1-yl)pyrimidin-2-yl)-6-(trifluoromethyl)imidazo[1,2-a]pyrazine]
7.00 to 8.00	Cc1n[nH]c(C)c1C1CCCN(c2ccnc(-c3cnc4cnc(C(F)(F)F)cn34)n2)C1 (single isomer, unassigned) [IV-477, 3-(4-(3-(3,5-Dimethyl-1H-pyrazol-4-yl)piperidin-1-yl)pyrimidin-2-yl)-6-(trifluoromethyl)imidazo[1,2-a]pyrazine]
7.00 to 8.00	CC1CC(C(N)=O)C(C)N(c2ccnc(-c3cnc4cnc(C(F)(F)F)cn34)n2)C1 (single isomer, unassigned) [IV-481, 2,5-Dimethyl-1-(2-(6-(trifluoromethyl)imidazo[1,2-a]pyrazin-3-yl)pyrimidin-4-yl)piperidine-3-carboxamide]
6.00 to 7.00	CC1C(C(N)=O)CCCN1c1ccnc(-c2cnc3cnc(C(F)(F)F)cn23)n1 (single isomer, unassigned) [IV-498, 2-Methyl-1-(2-(6-(trifluoromethyl)imidazo[1,2-a]pyrazin-3-yl)pyrimidin-4-yl)piperidine-3-carboxamide]
6.00 to 7.00	CC1CC(C(N)=O)C(C)N(c2ccnc(-c3cnc4cnc(C(F)(F)F)cn34)n2)C1 (single isomer, unassigned) [IV-500, 2,5-Dimethyl-1-(2-(6-(trifluoromethyl)imidazo[1,2-a]pyrazin-3-yl)pyrimidin-4-yl)piperidine-3-carboxamide]
6.00 to 7.00	N#C[C@@H]1CCN(c2ccnc(-c3cnc4cnc(C(F)(F)F)cn34)n2)C1 (single isomer, unassigned) [IV-521]
7.00 to 8.00	FC(F)(F)c1cn2c(-c3nccc(N4CCC(c5cn[nH]c5)C4)n3)cnc2cn1 (single isomer, unassigned) [IV-541, 3-(4-(3-(1H-Pyrazol-4-yl)pyrrolidin-1-yl)pyrimidin-2-yl)-6-(trifluoromethyl)imidazo[1,2-a]pyrazine]
6.00 to 7.00	FC(F)(F)c1cn2c(-c3nccc(N4CCCC(C5CCOC5)C4)n3)cnc2cn1 (single isomer, unassigned) [IV-543, 3-(4-(3-(Tetrahydrofuran-3-yl)piperidin-1-yl)pyrimidin-2-yl)-6-(trifluoromethyl)imidazo[1,2-a]pyrazine]
6.00 to 7.00	FC(F)(F)c1cn2c(-c3nccc(N4CCCC(C5CCOC5)C4)n3)cnc2cn1 (single isomer, unassigned) [IV-544, 3-(4-(3-(Tetrahydrofuran-3-yl)piperidin-1-yl)pyrimidin-2-yl)-6-(trifluoromethyl)imidazo[1,2-a]pyrazine]
6.00 to 7.00	CC1CN(c2ccnc(-c3cnc4cnc(C(F)(F)F)cn34)n2)C(C)C(c2cnc[nH]2)N1 (single isomer, unassigned) [IV-549, 3-(4-(3-(1H-Imidazol-5-yl)-2,5-dimethylpiperazin-1-yl)pyrimidin-2-yl)-6-(trifluoromethyl)imidazo[1,2-a]pyrazine]
6.00 to 7.00	CN1C(=O)CO[C@H]2CN(c3ccnc(-c4cnc5cnc(C(F)(F)F)cn45)n3)C[C@@H]21 (single isomer, unassigned) [IV-551]
7.00 to 8.00	C[C@H]1CCCCN1c1ccnc(-c2cnc3cnc(C(F)(F)F)cn23)n1 (single isomer, unassigned) [IV-597]
6.00 to 7.00	CC1CN(c2ccnc(-c3cnc4cnc(C(F)(F)F)cn34)n2)C(C)C(c2c[nH]c(C(F)(F)F)n2)N1 (single isomer, unassigned) [IV-674, 3-(4-(2,5-Dimethyl-3-(2-(trifluoromethyl)-1H-imidazol-4-yl)piperazin-1-yl)pyrimidin-2-yl)-6-(trifluoromethyl)imidazo[1,2-a]pyrazine]

Same assay, conditions: compounds of Formula II; 280 μM ATP, 4 nM GCN2 kinase

pIC50	pKi	SMILES
< 6.00		C[C@@H]1[C@H](CNS(C)(=O)=O)CCCN1c1cc(-c2cnc3ccc(C(F)F)nn23)ncn1 (stereo in doubt) [II-754, N-(((2R,3S)-1-(6-(6-(difluoromethyl)imidazo[1,2-b]pyridazin-3-yl)pyrimidin-4-yl)-2-methylpiperidin-3-yl)methyl)methanesulfonamide]
6.00 to 8.00		Cc1nn(C)cc1C1CN(c2cc(-c3cnc4ccc(C(F)(F)F)nn34)ncn2)C[C@@H](C)O1 (stereo in doubt) [II-760, (2R,6R)-2-(1,3-dimethyl-1H-pyrazol-4-yl)-6-methyl-4-(6-(6-(trifluoromethyl)imidazo[1,2-b]pyridazin-3-yl)pyrimidin-4-yl)morpholine]
< 6.00		Cc1nn(C)cc1C1CN(c2cc(-c3cnc4ccc(C(F)(F)F)nn34)ncn2)C[C@@H](C)O1 (stereo in doubt) [II-761, (2S,6R)-2-(1,3-dimethyl-1H-pyrazol-4-yl)-6-methyl-4-(6-(6-(trifluoromethyl)imidazo[1,2-b]pyridazin-3-yl)pyrimidin-4-yl)morpholine]
	6.00 to 8.00	CS(=N)(=O)NC[C@@H]1CN(c2cc(-c3cnc4ccc(C(F)F)nn34)ncn2)CCO1 (stereo partly drawn) [II-23, N—(((S)-4-(6-(6-(Difluoromethyl)imidazo[1,2-b]pyridazin-3-yl)pyrimidin-4-yl)morpholin-2-yl)methyl)methanesulfonimidamide]
	< 6.00	CC1C(CO)N(C(C)(C)C)CCN1c1cc(-c2cnc3ccc(C(F)F)nn23)ncn1 (stereo not shown) [II-43, (1-(tert-Butyl)-4-(6-(6-(difluoromethyl)imidazo[1,2-b]pyridazin-3-yl)pyrimidin-4-yl)-3-methylpiperazin-2-yl)methanol]
	> 8.00	CS(=O)(=O)NCC1CCCN(c2cc(-c3cnc4ccc(C(F)F)nn34)cc(NCCO)n2)C1 (stereo not shown) [II-91, N-((1-(4-(6-(Difluoromethyl)imidazo[1,2-b]pyridazin-3-yl)-6-((2-hydroxyethyl)amino)pyridin-2-yl)piperidin-3-yl)methyl)methanesulfonamide]

Same assay, conditions: compounds of Formula IV; 280 μM ATP, 4 nM GCN2 kinase

pIC50	SMILES
6.00 to 8.00	Cc1n[nH]cc1[C@H]1CN(c2ccnc(-c3cnc4cnc(C(F)(F)F)cn34)n2)C[C@@H](C)O1 (stereo in doubt) [IV-762, (2R,6S)-2-methyl-6-(3-methyl-1H-pyrazol-4-yl)-4-(2-(6-(trifluoromethyl)imidazo[1,2-a]pyrazin-3-yl)pyrimidin-4-yl)morpholine]

Same assay, conditions: compounds of Formula V; 280 μM ATP, 4 nM GCN2 kinase

pKi	SMILES
6.00 to 7.00	C[C@@H]1CN(c2ccnc(-c3cnc4sc(C(F)F)cn34)n2)C[C@H](CNS(C)(=O)=O)C1(F)F (stereo in doubt) [Compound V-2, N-((-1-(2-(2-(difluoromethyl)imidazo[2,1-b]thiazol-5-yl)pyrimidin-4-yl)-4,4-difluoro-5-methylpiperidin-3-yl)methyl)methanesulfonamide]
6.00 to 7.00	O=C1CCN(c2ccnc(-c3cnc4sc(C(F)(F)F)cn34)n2)CCN1 [Compound V-8, 1-[2-[2-(Trifluoromethyl)imidazo[2,1-b]thiazol-5-yl]pyrimidin-4-yl]-1,4-diazepan-5-one]
6.00 to 7.00	CS(C)(=O)=NC1CCCN(c2ccnc(-c3cnc4sc(C(F)(F)F)cn34)n2)C1 (stereo not shown) [Compound V-9, Dimethyl((1-(2-(2-(trifluoromethyl)imidazo[2,1-b]thiazol-5-yl)pyrimidin-4-yl)piperidin-3-yl)imino)-λ^6-sulfanone]
